From PubChem BioAssay AID179 (DTP/NCI, 2004) come the findings set out here.

This test concerns CEM cells HIV-1 protection, formazan growth assay. Briefly: NCI AIDS Antiviral Assay. Particulars: for pIC50: measured here: growth of uninfected CEM cells. The essentials: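 Soluble formazan readout of cell growth; CEM cells ± HIV-1; 5 drug concs. ≥50% protection → retest; ≥50% again = moderately active; reproducible 100% = confirmed active.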

pEC50, pIC50: −log10 of the molar value. Activity calls are given as the source filed them.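 How the source made its calls: active means compounds giving half or more protection of infected cells from virus-caused growth loss, again on retest; inactive means the rest.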 Where a SMILES comes first, the peptide text is derived from it. Where only a bound is given, the exact number is not on record here.

For `C1C2CC3CC1CC(Nc1nc(NC45CC6CC(CC(C6)C4)C5)nc(NC45CC6CC(CC(C6)C4)C5)n1)(C2)C3`, the pEC50 is < 3.70 and the negative-log IC50 (pIC50) was 4.38.

With `CC(C)CC(N)C(=O)NC(CC(=O)O)C(=O)NC(CCCCN)C(=O)NC(C)C(=O)NC(CO)C(=O)NC(Cc1ccc(O)cc1)C(=O)NC(CO)C(=O)NC(C(=O)NC(CC(N)=O)C(=O)NC(Cc1cnc[nH]1)C(=O)O)C(C)O` (centres undefined) (H-LDKASYSTNH-OH; configuration not given here), the pEC50 is < 4.66 and the pIC50 is < 4.66.

For the compound `C[N+](C)(C)CC(=O)N/N=C(/CC1OC(=O)c2ccccc21)c1ccccc1O` (centres undefined), the pEC50 is < 3.92 and the pIC50 is 4.11.

Take `COCCNC(=O)C1C(=O)C(=O)N(CCOC)C1=O` (centres undefined): the result was inactive.

For the compound `O=C1CCC(C2(O)c3ccccc3-c3ccccc32)C(=O)N1` (centres undefined), the pEC50 is < 3.91 and the negative-log IC50 (pIC50) is < 3.91.

For the compound `CC(C)[C@](O)(C(=O)OCC1CCN2CC[C@@H](O)C12)[C@H](C)O` (some centres undefined), the pEC50 is < 3.70 and the pIC50 was < 3.70.

Consider `CCOP(=O)(OCC)/C(C#N)=C/c1cccc(C)c1`, for which the pEC50 is < 3.47 and the pIC50 was < 3.47.

In the case of `O=C1NC(=O)C(CCSSCCC2NC(=O)NC2=O)N1` (centres undefined), the pEC50 is < 3.70 and the pIC50 is < 3.70.

For the compound `CCOC(=O)C1(O)Nc2ncncc2N(C)C1=O` (centres undefined), the pEC50 is < 3.70 and the negative-log IC50 (pIC50) was < 3.70.

Take `CCCCC#C[I+]c1ccccc1`: the outcome was inactive.

Regarding `Clc1nc2n(c1/C=C/c1cccs1)CCS2`, the pEC50 was < 3.70 and the negative-log IC50 (pIC50) is 4.69.

With `Cn1c(=O)c2nc(-c3cccnc3)cnc2n(C)c1=O`, the pEC50 was < 3.70 and the negative-log IC50 (pIC50) was < 3.70.

Consider `N#C/C(=C/N1C(=O)/C(=C/c2ccc([N+](=O)[O-])cc2)SC1=S)C(N)=O`, for which the pEC50 was < 3.70 and the pIC50 is 4.79.

As for `CC1OC(OC2CC(O)(C(=O)CO)Cc3c(O)c4c(c(O)c32)C(=O)c2ccccc2C4=O)CC(N)C1O` (centres undefined), the pEC50 was < 6.70 and the pIC50 was 7.20.

Regarding `c1ccc(C2=Nc3ccccc3C(c3ccccc3)=Nc3ccccc32)cc1`, the pEC50 is < 4.14 and the negative-log IC50 (pIC50) is < 4.14.

As for `COc1ccccc1/C(=N\OCCC(=O)O)c1cccs1`, the outcome was inactive.

As for `Cc1nc2c(nc1Cl)nc(Oc1ccc(Cl)cc1)c1ccccc12`, the pEC50 is < 4.55 and the pIC50 was < 4.55.

Turning to `CC(C)(C)OC(=O)N[C@@H](Cc1ccccc1)CN1CCCC1C(=O)OCc1ccccc1` (some centres undefined), the pEC50 is < 4.51 and the negative-log IC50 (pIC50) is < 4.51.

On to `C=C1C2CCC3(CCC4C5(C)CCCC4(C=[N+](CCO)C5)C3C2)C1O` (centres undefined), for which the result was inactive.

As for `CCN(CC)C(=O)CC12CCCCC1=Nc1ccccc12` (centres undefined), the pEC50 is < 3.06 and the pIC50 was 3.26.

Regarding `CCOC(=O)c1cc2c(nc1NCc1ccc(OC)c(OC)c1)/C(=C/c1ccccc1)CCCC2`, the pEC50 is < 3.70 and the pIC50 is 4.99.

Turning to `CCOc1ccc(/C=C/C(=O)c2sc(NNC(C)=O)nc2C)cc1`, the pEC50 was < 4.68 and the pIC50 is < 4.68.

Take `O=c1n(-c2ccccc2)c(=O)n2n1C1C3C4C3C2C2(F)C4C12` (centres undefined): the pEC50 was < 3.70 and the negative logarithm of the IC50 (pIC50) was < 3.70.

For `O=P1(Oc2ccc(Cl)cc2)OCCS1` (centres undefined), the pEC50 was < 3.70 and the pIC50 was < 3.70.

Take `O=C(O)c1ccc2cc(O)ccc2c1`: the pEC50 is < 3.70 and the negative logarithm of the IC50 (pIC50) is < 3.70.

In the case of `COC(=O)C1C(=O)CC[C@H]2CN3CCc4c([nH]c5ccccc45)C3CC12` (some centres undefined), the pEC50 is < 4.27 and the negative logarithm of the IC50 (pIC50) was < 4.27.

Regarding `CP1(=S)CC(Cl)=C2CCCCC21` (centres undefined), the result was inactive.

For the compound `C=CCC12CC(O)C(O)CC1(OC)OC(c1cc(OC)c(OC)c(OC)c1)C2C` (centres undefined), the pEC50 is < 3.70 and the pIC50 was 3.89.

In the case of `CC(=O)O[C@H]1CCC2[C@@H]3CCC4C(=O)c5oncc5C[C@]4(C)C3CC[C@@]21C` (some centres undefined), the result was inactive.

As to `CN(C)c1nc(N(C)C)nc(N(C)CN(C)c2ccccc2)n1`, the pEC50 is < 4.00 and the negative-log IC50 (pIC50) was < 4.00.

For `CCC[CH2][Sn]([CH2]CCC)([O]C(=O)c1cccc(F)c1F)[O][Sn]([CH2]CCC)([CH2]CCC)[O]C(=O)c1cccc(F)c1F`, the pEC50 was < 5.18 and the pIC50 is 5.32.

Regarding `C[C@]12CC[C@@H]3c4ccc(OC(=O)N(CCCl)CCCl)cc4CC[C@H]3[C@@H]1CC[C@@H]2O`, the pEC50 was < 3.70 and the pIC50 was 5.77.

On to `NC(=O)C1C[C@@H](O)CN1C(=O)c1ccc2c(c1)OCO2` (some centres undefined), for which the pEC50 is < 3.70 and the pIC50 was < 3.70.

In the case of `c1ccc([P+](CCNCCNCC[P+](c2ccccc2)(c2ccccc2)c2ccccc2)(c2ccccc2)c2ccccc2)cc1`, the pEC50 was < 3.45 and the negative logarithm of the IC50 (pIC50) is 3.63.

Turning to `COC(=O)C1=CC2OC1(C)CCC2=O` (centres undefined), the outcome was inactive.

`COC(=O)C1CC(C=[N+](C)C)=C(SC)N1` (centres undefined): the pEC50 was < 3.70 and the pIC50 is < 3.70.

Consider `COc1ccc(NC(=O)Oc2ccc3c(C)cc(=O)oc3c2)c(OC)c1`, for which the pEC50 is < 4.28 and the pIC50 was < 4.28.

For the compound `BrC1=C(Br)C2(SCCS2)[C@H]2C[C@@H]1c1ccccc12`, the pEC50 is < 3.70 and the negative-log IC50 (pIC50) is 5.06.

Consider `O=C([O-])c1ccc([I+]c2ccccc2)cc1`, for which the outcome was inactive.

In the case of `Cc1cc2occ(S(=O)(=O)NC(=O)Nc3ccc(Cl)cc3)c(=O)c2c(=O)o1`, the pEC50 is < 3.70 and the negative logarithm of the IC50 (pIC50) is 3.82.

On to `CCSC(=O)C1(C)OC2CCCCC2C1=O` (centres undefined), for which the outcome was inactive.

Turning to `NC(N)=NCCCC(NC(=O)OCCCCn1ccc(N)nc1=O)C(=O)O` (centres undefined), the pEC50 was < 3.70 and the negative-log IC50 (pIC50) is < 3.70.

On to `S=c1nc[nH]c2c1ccc1[nH]cnc12`, for which the pEC50 is < 4.73 and the negative-log IC50 (pIC50) was < 4.73.

On to `CCOC(=O)/C(=C/c1ccc(OC)cc1)C(=O)c1ccccc1`, for which the pEC50 is < 4.77 and the pIC50 is < 4.77.

Turning to `Cc1cc(Cl)ccc1NC(=O)C(=O)Cc1ccc([N+](=O)[O-])c([N+](=O)[O-])c1CC(=O)C(=O)Nc1ccc(Cl)cc1C`, the pEC50 was < 3.51 and the negative logarithm of the IC50 (pIC50) was 3.89.

In the case of `CC(C)[Si](OC1=CCC[C@H]2NC(=O)[C@@H](Cc3ccc([N+](=O)[O-])cc3)[C@@]12C)(C(C)C)C(C)C`, the pEC50 is < 3.70 and the negative-log IC50 (pIC50) is 4.69.

`CC(=O)Nc1ccc(C2=N/C(=C\c3ccc(Cl)cc3)C(=O)O2)cc1`: the pEC50 is < 4.96 and the negative logarithm of the IC50 (pIC50) was < 4.96.

`Cc1cn(C2CC(N=[N+]=[N-])C(COC(=O)CCOCCCCCCCCCl)O2)c(=O)[nH]c1=O` (centres undefined): the negative logarithm of the EC50 (pEC50) was 8.16 and the pIC50 is 4.70.

Take `c1ccc(SCCCC(Sc2ccccc2)Sc2ccccc2)cc1`: the outcome was inactive.

`CCCCN(CCCC)c1c([N+](=O)[O-])c(=O)nc2ccccn12`: the pEC50 was < 3.10 and the negative logarithm of the IC50 (pIC50) is 5.77.

As for `O=C(O)/C=C/c1ccc(O)c(O)c1`, the pEC50 is < 2.86 and the pIC50 is 4.18.

For the compound `O=C(O)/C(Cl)=C(\Cl)Nc1cccc(C(F)(F)F)c1`, the outcome was inactive.

For `COC(=O)c1ccccc1/C=C1\Cc2c(C)c3c(c(C)c2C1=O)CCC3`, the result was inactive.

In the case of `CC(C)CCCC(C)[C@H]1CC[C@H]2[C@H]3CC[C@@H]4C[C@H](CCC=C(c5cc(Cl)c(O)c(C(=O)O)c5)c5cc(Cl)c(O)c(C(=O)O)c5)CC[C@]4(C)[C@H]3CC[C@]12C` (some centres undefined), the negative logarithm of the EC50 (pEC50) is 4.38 and the negative-log IC50 (pIC50) was < 3.70.

Take `O=[N+]([O-])c1cc([N+](=O)[O-])c2no[n+]([O-])c2c1Nc1ccccc1`: the pEC50 is < 4.25 and the negative-log IC50 (pIC50) is < 4.25.

`C=C1CN(S(=O)(=O)c2ccc([N+](=O)[O-])cc2)CC(=C)CN(S(=O)(=O)c2ccc([N+](=O)[O-])cc2)CC(=C)CN(S(=O)(=O)c2ccc([N+](=O)[O-])cc2)C1`: the pEC50 is < 4.00 and the negative logarithm of the IC50 (pIC50) is < 4.00.

`CC(C)CC(=O)[O-].CC(C)CC(=O)[O-].N.N.N.N.[Co+3].[O-][Cl+3]([O-])([O-])O.[O-][Cl+3]([O-])([O-])[O-]`: the result was inactive.

With `CC1=CC[P+](Cc2ccccc2)(c2ccccc2)C1` (centres undefined), the pEC50 is < 3.14 and the negative logarithm of the IC50 (pIC50) was 4.39.

As for `Cc1ccc(S(=O)(=O)N2CCN(C=S)CC2)cc1`, the pEC50 is < 4.04 and the pIC50 is < 4.04.

Consider `Cc1cnc2sn(-c3ccc(Oc4ccccc4)cc3)c(=O)c2c1`, for which the pEC50 was < 3.70 and the negative logarithm of the IC50 (pIC50) was 5.00.

As for `Clc1ccc(CN2COc3c(cc(Cl)c4cccnc34)C2)c(Cl)c1`, the pEC50 is < 4.00 and the negative-log IC50 (pIC50) was 5.76.

`COc1ccc(C[C@H]2COC(=O)[C@@H]2Cc2ccc(Br)cc2)cc1OC`: the pEC50 was < 3.70 and the pIC50 was 4.61.

Turning to `Nc1nc(=S)[nH]c2n[nH]nc12`, the pEC50 is < 3.70 and the negative logarithm of the IC50 (pIC50) was < 3.70.

Consider `CC(=O)N(CCN1C(=O)c2ccccc2C1=O)CCN1C(=O)c2ccccc2C1=O`, for which the result was inactive.

On to `Cc1c(O)c(OC2OC(CO)C(O)C(O)C2O)cc2c1CC[C@@H]1C2(C)C(=O)C[C@]2(C)[C@@H]([C@@](C)(O)C(=O)CCC(C)(C)O)[C@H](O)C[C@@]12C` (some centres undefined), for which the pEC50 is < 3.70 and the negative logarithm of the IC50 (pIC50) was < 3.70.

Turning to `O=C(OCCN1CCCC1)c1cc2ccccc2n1-c1ccccc1`, the pEC50 is < 3.70 and the pIC50 was 4.33.

Consider `CC(C)(C)c1cc2c(O)c(c1)Cc1cc(C(C)(C)C)cc(c1O)Cc1cc(C(C)(C)C)cc(c1O)Cc1cc(C(C)(C)C)cc(c1O)C2`, for which the pEC50 was < 4.11 and the negative-log IC50 (pIC50) is < 4.11.

Consider `O=C(C[P+](c1ccccc1)(c1ccccc1)c1ccccc1)c1ccc([N+](=O)[O-])cc1`, for which the pEC50 was < 3.70 and the pIC50 was 4.72.

Turning to `Cc1cccc2c(O)cc(=O)oc12`, the result was inactive.

On to `Cc1cccc(C2SCc3nc4ccccc4n32)c1` (centres undefined), for which the result was inactive.
